This note sets out measurements from patent publication US8088805B2, “Inhibitors of histone deacetylase” (MethylGene Inc., priority 2004, dated 2012).

Where only a bound is given, the exact number is not on record here.

One assay relates to HCT116 cells. As to the kind of experiment: MTT assay. Format: cell-based. Particulars: Homo sapiens, HCT-116, 72 hours. Here is the method: HCT116 cells (2000/well) were plated into 96-well tissue culture plates one day before compound treatment. Compounds at various concentrations were added to the cells. The cells were incubated for 72 hours at 37° C. in 5% CO2 incubator. MTT (3-[4,5-dimethylthiazol-2-yl]-2,5diphenyl tetrazolium bromide, Sigma) was added at a final concentration of 0.5 mg/ml and incubated with the cells for 4 hours before one volume of solubilization buffer (50% N,N-dimethylformamide, 20% SDS, pH 4.7) was added onto the cultured cells. After overnight incubation, solubilized dye was quantified by colorimetric reading at 570 nM using a reference at 630 nM using an MR700 plate reader (Dynatech Laboratories Inc.). OD values were converted to cell numbers according to a standard growth curve of the relevant cell line. The concentration which reduces cell numbers to 50% of that of solvent treated cells is determined as MTT IC50. In Table 14, “a” indicates activity of ≦0.1 μM, “b” indicates activity of ≦1 μM, and “c” indicates activity of ≦5 μM.
For orientation: Formazan colour is commonly taken as a measure of viable cells.

For assay [1], the target named is T1, cloned recombinant human HDAC-1 enzyme (Homo sapiens, UniProt Q13547).
T1 construct: made in house; host or cells: Baculovirus insect cell expression system
As to the kind of experiment: HDAC-1 enzymatic inhibition, Assay 1 ([3H]-acetylated histone substrate). The class given is biochemical. The note with it: Assay 1: [3H]-labeled acetylated histone substrate, recombinant hHDAC-1. Here is the method: Assay 1. HDAC inhibitors were screened against a cloned recombinant human HDAC-1 enzyme expressed and purified from a Baculovirus insect cell expression system. For deacetylase assays, 20,000 cpm of the [^3H]-metabolically labeled acetylated histone substrate (M. Yoshida et al., J. Biol. Chem. 265(28): 17174-17179 (1990)) was incubated with 30 μg of the cloned recombinant hHDAC-1 for 10 minutes at 37° C. The reaction was stopped by adding acetic acid (0.04 M, final concentration) and HCl (250 mM, final concentration). The mixture was extracted with ethyl acetate and the released [^3H]-acetic acid was quantified by scintillation counting. For inhibition studies, the enzyme was preincubated with compounds at 4° C. for 30 minutes prior to initiation of the enzymatic assay. IC50 values for HDAC enzyme inhibitors were determined by performing dose response curves with individual compounds and determining the concentration of inhibitor producing fifty percent of the maximal inhibition.
(§1) Assay 1 was used to measure HDAC activity of compounds 10c, 13e, 16d, 26b, 44, 47, 61a, 61b, 63, 134, 138, and 308. Assay 2 was used to measure HDAC activity of compounds 361, 366, 367, 368, 369, 370, 371, 372, 373, 374, 375, 376, 377, and 378. In Table 14, “a” indicates activity of ≦0.1 μM, “b” indicates activity of ≦1 μM, “c” indicates activity of ≦5 μM, and “d” indicates activity of >5 μm. For the H4-Ac T24 EC vs. MS-275 assay in Table 14, “u” indicates less than 1, “v” indicates 1, and “w” indicates greater than 1. For the H3 Ac t24 assay in Table 14, “x” indicates activity of ≦1 μM, “y” indicates activity of ≦10 μM, and “z” indicates activity of ≦20 μM.

Assay [2] relates to Histone H4 acetylation in T24 human bladder cancer cells. Kind of assay: Histone H4 acetylation in whole cells by immunoblots. The class given is cell-based. The note with it: ratio of EC50 of compound to EC50 of control MS-275, 16 h. Here is the method: T24 human bladder cancer cells growing in culture were incubated with HDAC inhibitors for 16 h. Histones were extracted from the cells after the culture period as described by M. Yoshida et al. (J. Biol. Chem. 265(28): 17174-17179 (1990)). […] of total histone protein was loaded onto SDS/PAGE and transferred to nitrocellulose membranes. Membranes were probed with polyclonal antibodies specific for acetylated histone H-4 (Upstate Biotech Inc.), followed by horse radish peroxidase conjugated secondary antibodies (Sigma). Enhanced Chemiluminescence (ECL) (Amersham) detection was performed using Kodak films (Eastman Kodak). Acetylated H-4 signal was quantified by densitometry. Data are presented as the ratio of the concentration effective for […] the acetylated H-4 signal by 50% (EC50) using the indicated compound of the invention to a control compound, MS-275. If the indicated ratio is 1, then the compound of the invention is as effective as the MS-275 control compound. […] Further information regarding the MS-275 compound can be found in Suzuki et al., J. Med. Chem. 1999, pp. 3001-3003.
A general note: A western blot detects proteins with antibodies after separation by electrophoresis.

In the next assay the target is Human HDAC-1 (Homo sapiens, UniProt Q13547). Kind of assay: HDAC-1 enzymatic inhibition, Assay 2 (Boc-Lys(Ac)-AMC, Fluor-de-Lys). The class given is biochemical. The note with it: Assay 2: Boc-Lys(Ac)-AMC substrate, fluorescence; read-out: HDAC1 IC50. Here is the method: Assay 2. The following protocol was also used to assay the compounds of the invention. In the assay, the buffer used was 25 mM HEPES, pH 8.0, 137 mM NaCl, 2.7 mM KCl, 1 mM MgCl2 and the substrate was Boc-Lys(Ac)-AMC in a 50 mM stock solution in DMSO. The enzyme stock solution was 4.08 μg/mL in buffer. The compounds were pre-incubated (2 μl in DMSO diluted to 13 μl in buffer for transfer to assay plate) with enzyme (20 μl of 4.08 μg/ml) for 10 minutes at room temperature (35 μl pre-incubation volume). The mixture was pre-incubated for 5 minutes at room temperature. The reaction was started by bringing the temperature to 37° C. and adding […] substrate. Total reaction volume was 50 μl. The reaction was stopped after 20 minutes by addition of 50 μl developer, prepared as directed by Biomol (Fluor-de-Lys developer, Cat. # KI-105). A plate was incubated in the dark for 10 minutes at room temperature before reading (λEx=360 nm, λEm=470 nm, Cutoff filter at 435 nm).
as §1

As usually defined, the IC50 is the point on the concentration scale where inhibition reaches its midpoint.

T1 sequence (Q13547 whole entry): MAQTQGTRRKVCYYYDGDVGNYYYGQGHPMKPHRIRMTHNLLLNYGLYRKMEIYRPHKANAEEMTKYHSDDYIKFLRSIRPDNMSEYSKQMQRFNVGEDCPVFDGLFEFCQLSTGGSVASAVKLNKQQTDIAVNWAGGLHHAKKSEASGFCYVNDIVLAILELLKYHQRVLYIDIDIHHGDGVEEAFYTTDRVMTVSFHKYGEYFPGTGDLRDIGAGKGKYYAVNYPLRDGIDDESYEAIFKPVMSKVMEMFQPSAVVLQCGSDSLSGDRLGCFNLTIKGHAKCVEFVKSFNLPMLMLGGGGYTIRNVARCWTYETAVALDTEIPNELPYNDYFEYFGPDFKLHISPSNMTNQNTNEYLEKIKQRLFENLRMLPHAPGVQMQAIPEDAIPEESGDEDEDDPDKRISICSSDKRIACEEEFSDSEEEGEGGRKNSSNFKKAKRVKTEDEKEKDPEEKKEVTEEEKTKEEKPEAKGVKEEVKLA
Sequence of Human HDAC-1 (Q13547 whole entry): as above

As for `COc1cccc(CCNc2ccnc(NCc3ccc(C(=O)Nc4ccccc4N)cc3)n2)c1` [10c, N-(2-Amino-phenyl)-4-({4-[2-(3-methoxy-phenyl)-ethylamino]-pyrimidin-2-ylamino}-methyl)-benzamide], the IC50 with HCT116 cells lay in the range of 0.1 to 1 µM; in assay [1] it was 1 to 5 µM. Also, the “H4-Ac T24 EC vs. MS-275” value in assay [2] is “v (“v” indicates 1)”.

As for `Nc1ccccc1NC(=O)c1ccc(CNc2ncc(-c3cccnc3)cn2)cc1` [13e, N-(2-Amino-phenyl)-4-[(5-pyridin-3-yl-pyrimidin-2-ylamino)-methyl]-benzamide], the IC50 is 0.1 to 1 µM with HCT116 cells and 1 to 5 µM in assay [1]. For the same compound, the “H4-Ac T24 EC vs. MS-275” value in assay [2] is given as “v (“v” indicates 1)”.

Regarding `Nc1ccccc1NC(=O)c1ccc(CNc2nccc(-c3ccc(F)c(F)c3)n2)cc1` [16d, N-(2-Amino-phenyl)-4-{[4-(3,4-difluoro-phenyl)-pyrimidin-2-ylamino]-methyl}-benzamide], the IC50 (in the assay with HCT116 cells; in assay [1]) was 0.1 to 1 µM each time. The “H4-Ac T24 EC vs. MS-275” value in assay [2] is “v (“v” indicates 1)”.

Take `CSc1nc(NCc2ccc(C(=O)Nc3ccccc3N)cc2)cc(-c2cccnc2)n1` [61a, N-(2-Amino-phenyl)-4-[(2-methylsulfanyl-6-pyridin-3-yl-pyrimidin-4-ylamino)-methyl]-benzamide]: the IC50 is ≤ 0.1 µM with HCT116 cells and 1 to 5 µM in assay [1]. In assay [2], the “H4-Ac T24 EC vs. MS-275” value is given as “v (“v” indicates 1)”.

As to `Nc1ccccc1NC(=O)c1ccc(CNc2cc(-c3cccnc3)ncn2)cc1` [61b, N-(2-Amino-phenyl)-4-[(6-pyridin-3-yl-pyrimidin-4-ylamino)-methyl]-benzamide], the IC50 is ≤ 0.1 µM in the assay with HCT116 cells and 1 to 5 µM in assay [1]. The “H4-Ac T24 EC vs. MS-275” value in assay [2] is recorded as “u (“u” indicates less than 1)”.

Consider `Nc1ccccc1NC(=O)c1ccc(CNc2nccc(-c3ccc(CN4CCOCC4)cc3)n2)cc1` [compound 44, N-(2-Amino-phenyl)-4-{[4-(4-morpholin-4-ylmethyl-phenyl)-pyrimidin-2-ylamino]-methyl}-benzamide], for which the IC50 with HCT116 cells is ≤ 0.1 µM; in assay [1], 1 to 5 µM. For the same compound, the “H4-Ac T24 EC vs. MS-275” value in assay [2] is on record as “v (“v” indicates 1)”.

As for `Nc1ccccc1NC(=O)c1ccc(CNc2ccnc(-c3cccnc3)n2)cc1` [compound 47, N-(2-Amino-phenyl)-4-[(2-pyridin-3-yl-pyrimidin-4-ylamino)-methyl]-benzamide], the IC50 was in the range of 0.1 to 1 µM in the assay with HCT116 cells and 1 to 5 µM in assay [1]. Further, the “H4-Ac T24 EC vs. MS-275” value in assay [2] is reported as “u (“u” indicates less than 1)”.

On to `Nc1ccccc1NC(=O)c1ccc(CNc2cncc(-c3cccnc3)n2)cc1` [compound 63, N-(2-Amino-phenyl)-4-[(6-pyridin-3-yl-pyrazin-2-ylamino)-methyl]-benzamide], for which the IC50 fell in the range of 0.1 to 1 µM with HCT116 cells and 1 to 5 µM in assay [1]. In addition, in assay [2], the “H4-Ac T24 EC vs. MS-275” value is “v (“v” indicates 1)”.

As to `Nc1ccccc1NC(=O)c1ccc(CNc2nc3ccc(O)cc3s2)cc1` [compound 134, N-(2-Amino-phenyl)-4-[(6-hydroxy-benzothiazol-2-ylamino)-methyl]-benzamide], the IC50 in the assay with HCT116 cells was in the range of 0.1 to 1 µM; in assay [1] it was 1 to 5 µM. Further, in assay [2], the “H4-Ac T24 EC vs. MS-275” value was “u (“u” indicates less than 1)”.

As to `COc1cc(NCc2ccc3oc(C(=O)Nc4ccccc4N)cc3c2)cc(OC)c1OC` [compound 308, 5-[(3,4,5-Trimethoxy-phenylamino)-methyl]-benzofuran-2-carboxylic acid (2-amino-phenyl)-amide], the half-inhibitory concentration (IC50) in the assay on HCT116 cells was in the range of 0.1 to 1 µM; in assay [1] it was 1 to 5 µM. Also, the “H4-Ac T24 EC vs. MS-275” value in assay [2] is “w (“w” indicates greater than 1)”.

With `Nc1ccccc1NC(=O)c1ccc(N2CC[C@@H](Oc3cccnc3)C2)cc1` [compound 368, (R)—N-(2-Aminophenyl)-4-(3-(pyridin-3-yloxy)pyrrolidin-1-yl)benzamide], the IC50 in the assay on HCT116 cells and on Human HDAC-1 was 0.1 to 1 µM each time.

For the compound `Nc1ccccc1NC(=O)c1ccc(N2CC[C@@H](Nc3ccccc3)C2)cc1` [compound 370, (R)—N-(2-Aminophenyl)-4-(3-(phenylamino)pyrrolidin-1-yl)benzamide], the IC50 with HCT116 cells and at Human HDAC-1 was 1 to 5 µM in each case.

Turning to `Nc1ccccc1NC(=O)c1ccc(N2CC[C@H](Oc3ccccc3)C2)cc1` [compound 371, (S)—N-(2-Aminophenyl)-4-(3-phenoxypyrrolidin-1-yl)benzamide], the concentration for half-maximal inhibition (IC50) in the assay with HCT116 cells and at Human HDAC-1 was 0.1 to 1 µM in each case.

As for `COC(=O)c1ccc(O[C@H]2CCN(c3ccc(C(=O)Nc4ccccc4N)cc3)C2)cc1` [compound 372, (S)-Methyl-4-(1-(4-(2-aminophenylcarbamoyl)phenyl)pyrrolidin-3-yloxy)benzoate], the IC50 with HCT116 cells is 0.1 to 1 µM; on Human HDAC-1, ≤ 0.1 µM.

As for `Nc1ccccc1NC(=O)c1ccc(N2CC[C@H](Oc3ccc(C(=O)O)cc3)C2)cc1` [compound 373, (S)-4-(1-(4-(2-Aminophenylcarbamoyl)phenyl)pyrrolidin-3-yloxy)benzoic acid], the IC50 is > 5 µM in the assay on HCT116 cells and 0.1 to 1 µM at Human HDAC-1.

Turning to `Nc1ccccc1NC(=O)c1ccc(N2CC[C@H](Oc3ccc(Oc4ccccc4)cc3)C2)cc1` [compound 376, (S)—N-(2-Aminophenyl)-4-(3-(4-phenoxyphenoxy)pyrrolidin-1-yl)benzamide], the IC50 in the assay on HCT116 cells and on Human HDAC-1 was 1 to 5 µM each time.

In the case of `Nc1ccccc1NC(=O)c1ccc(N2CC[C@H](Oc3ccc([N+](=O)[O-])cc3)C2)cc1` [compound 377, (S)—N-(2-Aminophenyl)-4-(3-(4-nitrophenoxy)pyrrolidin-1-yl)benzamide], the IC50 in the assay with HCT116 cells and on Human HDAC-1 was 0.1 to 1 µM in each case.
